Key:
Format in all cases: cell-based, human
[1] = test system: Egr-1 and p-ERK proteins; experiment: ROS inhibitor assay (Western blot), HaCaT; details: 10 uM/ml NAC 2 hours before ZnO, 1 hour after ZnO, FIG. 13B
Method: (§1) A Western blot assay was performed in the same manner as described in Example 2, except for the following differences. At 2 hours before treatment with ZnO, cultured cells were treated with 10 uM/ml of the antioxidant N-acetyl cystein (NAC), and after 2 hours, the cells were treated with 2 ml of fresh DMEM medium free of FBS and P/S. After 1 hour from the treatment with ZnO, the medium was removed, and the cells were treated with 1×PBS, scraped with a scrapper, and then transferred to a 1.5 ml tube. […] Thus, it can be seen that the expressions of the marker proteins Egr-1 and p-ERK are increased by ROS (B: HaCaT, C: HEKn). Herein, the data points indicate the β-actin-normalized mean and ERK-normalized mean of three independent experiments compared using two-way Anova (***P<0.001).

[2] = test system: Egr-1 and p-ERK proteins; experiment: ROS inhibitor assay (Western blot), HEKn; details: 10 uM/ml NAC 2 hours before ZnO, 1 hour after ZnO, FIG. 13C
Method: as §1

[3] = test system: Egr-1 protein; experiment: MAPK inhibitor assay (Western blot, ZnO plus MAPK inhibitor); details: cells pre-treated with inhibitor 30 minutes before ZnO; 2 hours after ZnO
Method: (§2) A Western blot assay was performed in the same manner as described in Example 2, except for the following differences. At 30 minutes before treatment with ZnO, cells were treated with an MAPK (mitogen-activated proteinkinase) inhibitor (U0126: ERK inhibitor, SB600125: p38 inhibitor, SP239063: JNK inhibitor-sigma product), and after 30 minutes, the cells were treated with 2 ml of fresh DMEM medium free of FBS and P/S. After 2 hours from treatment with ZnO, the medium was removed, and the cells were treated with 1×PBS, scraped with a scrapper, and then transferred to a 1.5 ml tube.
as §2, with “from the” for “from”

| SMILES | expression bands of Egr-1 protein [1] | expression bands of p-ERK protein [1] | expression bands of Egr-1 protein [2] | expression bands of p-ERK protein [2] | expression of the Egr-1 protein [3] |
| --- | --- | --- | --- | --- | --- |
| CC(=O)N[C@@H](CS)C(=O)O [NAC, N-acetyl cystein] | significantly decreased | significantly decreased | significantly decreased | significantly decreased | – |
| N#CC(=C(/N)Sc1ccccc1N)/C(C#N)=C(\N)Sc1ccccc1N [U0126] | – | – | – | – | significantly decreased |

— patent US20150253328A1, “NANOMATERIAL-INDUCED CYTOTOXICITY DETECTION COMPOSITION AND KIT, AND NANOMATERIAL-INDUCED CYTOTOXICITY DETECTION METHOD” (KOREA UNIVERSITY RESEARCH AND BUSINESS FOUNDATION, priority 2011, published 2015)
